Assay results reported in patent US20030129222A1, “Liposomal imexon” (priority 2000, published 2003).
Where two headings read alike, the source gives them in different places.

How the values were obtained:
leukocytes = conditions: in vivo; cited from earlier work
[1] = substituent constant, from Hansch and Leo or calculated using Clog P software; cited from earlier work
OVCAR3 ovarian = assay: Cytotoxicity in tumor cell culture, SRB assay; type: cell-based, human
Text: (§1) Relative potencies of the N-substituted 2-cyanoaziridine-1-carboxamides in a panel of tumor cell cultures are compared in Table 3. This panel includes the following lines of human tumor cells: sensitive and imexon-resistant lines of multiple myeloma (Matsuoka et al., 1967); ovarian carcinoma resistant to standard drugs (Hamilton et al., 1984); melanoma with a slow growth fraction (Girard et al., 1973); breast carcinoma including sensitive, doxorubicin-resistant (P-glycoprotein-positive) (Taylor et al., 1991), and mitoxantrone-resistant (P-glycoprotein-negative) (Futscher et al., 1994) lines; sensitive and multidrug-resistant colon carcinoma (Noguchi et al., 1979; Dalton et al., 1988); and multidrug-resistant lung carcinoma (P-glycoprotein-negative) (Girard et al., 1973). It also has sensitive (Goldin et al., 1961) and multidrug-resistant (P-glycoprotein-positive) (Salmon and Hersh, 1994) murine L1210 leukemia cells.

A-549 lung = assay: Cytotoxicity in tumor cell culture, SRB assay; type: cell-based, human
Text: as §1

MCF7 breast, Sens = assay: Cytotoxicity in tumor cell culture, SRB assay; type: cell-based, human
Text: as §1

[2] = tested on: 8226 myeloma, Sens (drug-sensitive); assay: Cytotoxicity in tumor cell culture, SRB assay; type: cell-based, human; conditions: Homo sapiens
Text: as §1

[3] = tested on: MCF7 breast, Dox (doxorubicin-resistant); assay: Cytotoxicity in tumor cell culture, SRB assay; type: cell-based, human; conditions: Homo sapiens
Text: as §1

A375 melan = assay: Cytotoxicity in tumor cell culture, SRB assay; type: cell-based, human
Text: as §1

[4] = tested on: MCF7 breast, mitox (mitoxantrone-resistant); assay: Cytotoxicity in tumor cell culture, SRB assay; type: cell-based, human; conditions: Homo sapiens
Text: as §1

L1210 leukemia, Mdr = assay: Cytotoxicity in tumor cell culture, MTT assay; type: cell-based, murine; conditions: Mus musculus
Text: as §1

L1210 leukemia, Sens = assay: Cytotoxicity in tumor cell culture, MTT assay; type: cell-based, murine; conditions: Mus musculus
Text: as §1

PIE 2-3 sarcoma = conditions: cited from earlier work; for activity against PIE 2-3 sarcoma: 13: over a 10-fold dose range
[5] = tested on: 8226 myeloma, Res (imexon-resistant); assay: Cytotoxicity in tumor cell culture, SRB assay; type: cell-based; conditions: Homo sapiens, read-out: IC50 against human mouse tumors, 8226 myeloma Res
Text: as §1

WiDr colon, res = assay: Cytotoxicity in tumor cell culture, SRB assay; type: cell-based; conditions: Homo sapiens, WiDr, read-out: IC50 against human mouse tumors, WiDr colon res
Text: as §1

WiDr colon, Sens = assay: Cytotoxicity in tumor cell culture, SRB assay; type: cell-based
Text: as §1

[6] = tested on: Myeloma (cloned fresh human tumors); assay: Human tumor cloning assay, [3H]thymine uptake by tumor-colony-forming cells; type: cell-based; conditions: No. tested 3
Protocol: (§2) Assays of antitumor agents against fresh human tumor-colony-forming cells provide results that predict better the responses obtained in treating cancer patients than those obtained with long established human cell lines (Salmon et al., 1981). For this reason, the N-phenyl derivative 13 was tested against a variety of fresh human tumors obtained at the Arizona Cancer Center using established methodology (Salmon and Hersh, 1994).

[7] = tested on: Stomach (cloned fresh human tumors); assay: as above; type: cell-based; conditions: No. tested 1
Protocol: as §2

[8] = tested on: Other Gynecologic (cloned fresh human tumors); assay: as above; type: cell-based; conditions: No. tested 4
Protocol: as §2

[9] = tested on: Lung (cloned fresh human tumors); assay: as above; type: cell-based; conditions: No. tested 2
Protocol: as §2

[10] = tested on: Breast (cloned fresh human tumors); assay: as above; type: cell-based; conditions: No. tested 4
Protocol: as §2

[11] = tested on: Sarcoma (cloned fresh human tumors); assay: as above; type: cell-based; conditions: for no. sensitive: Sarcoma, No. tested 8
Protocol: as §2

[12] = tested on: Ovary (cloned fresh human tumors); assay: as above; type: cell-based; conditions: No. tested 12
Protocol: as §2

[13] = tested on: Melanoma (cloned fresh human tumors); assay: as above; type: cell-based; conditions: No. tested 10
Protocol: as §2

[14] = tested on: fresh human tumor-colony-forming cells; assay: Human tumor cloning assay, eight tumor cell types together; type: cell-based
Protocol: as §2

[15] = tested on: panel of tumor cells in culture; assay: Panel of tumor cell cultures (all lines of Table 3); type: cell-based, human, murine
Text: A set of twenty 2-cyanoaziridine-1-carboxamides was synthesized from 2-cyanoaziridine and appropriate isocyanates. […] It is contemplated that one or more of these 2-cyanoaziridine-1-carboxamides derivatives may be used in combination with a lipid and/or another agent.

[16] = cited from earlier work
[17] = tested on: human lymphoma, melanoma, and prostate cancer cell lines; conditions: cited from earlier work
[18] = tested on: transplanted syngeneic tumors; conditions: rodents; cited from earlier work
fresh human tumor cells = conditions: cited from earlier work
[19] = 13 2.0 μM (second column of 13)
[20] = Homo sapiens, OVCAR-3; read-out: IC50 against human mouse tumors, OVCAR3 ovarian
[21] = Homo sapiens, A549; read-out: IC50 against human mouse tumors, A-549 lung
[22] = Homo sapiens, MCF7; read-out: IC50 against human mouse tumors, MCF7 breast Sens
[23] = drug-sensitive line, read-out: IC50 against human mouse tumors, 8226 myeloma Sens
[24] = MCF7, doxorubicin-resistant, read-out: IC50 against human mouse tumors, MCF7 breast Dox
[25] = Homo sapiens, A-375; read-out: IC50 against human mouse tumors, A375 melan
[26] = MCF7, mitoxantrone-resistant, read-out: IC50 against human mouse tumors, MCF7 breast mitox
[27] = L1210, MTT assay, multidrug-resistant, read-out: IC50 against human mouse tumors, L1210 leukemia Mdr
[28] = L1210, MTT assay, read-out: IC50 against human mouse tumors, L1210 leukemia Sens
[29] = Homo sapiens, WiDr; read-out: IC50 against human mouse tumors, WiDr colon Sens

For `N#CC1CN1C(N)=O` (centres unmarked) [Compound 1, 2-cyanoaziridine-1-carboxamide], the “effect on number of leukocytes” value (leukocytes) is listed as “increased the number of leukocytes”, the π [1] is listed as 0 and the IC50 (OVCAR3 ovarian; Homo sapiens, OVCAR-3, read-out: IC50 against human mouse tumors, OVCAR3 ovarian) is listed as greater than 90 µM. The IC50 (A-549 lung; Homo sapiens, A549, read-out: IC50 against human mouse tumors, A-549 lung) was greater than 280 µM, the IC50 (MCF7 breast, Sens; Homo sapiens, MCF7, read-out: IC50 against human mouse tumors, MCF7 breast Sens) was greater than 54 µM and the IC50 [2] was 288 µM. The IC50 ([2]; read-out: IC50 against human mouse tumors, 8226 myeloma Sens) was 288 µM, the IC50 ([2]; read-out: Log(1/C) (converted)) was 288 µM and the IC50 ([3]; MCF7, read-out: IC50 against human mouse tumors, MCF7 breast Dox) was greater than 54 µM. The IC50 (A375 melan; Homo sapiens, A-375, read-out: IC50 against human mouse tumors, A375 melan) was greater than 90 µM, the IC50 ([4]; MCF7, read-out: IC50 against human mouse tumors, MCF7 breast mitox) was greater than 54 µM and the IC50 (L1210 leukemia, Mdr; L1210, read-out: IC50 against human mouse tumors, L1210 leukemia Mdr) was greater than 90 µM. For the same molecule, the IC50 (L1210 leukemia, Sens; L1210, read-out: IC50 against human mouse tumors, L1210 leukemia Sens) was greater than 90 µM, the “activity against PIE 2-3 sarcoma” value (PIE 2-3 sarcoma) was “active” and the “toxicity” value (PIE 2-3 sarcoma; rat, in vivo) was “low toxicity”. It also gave an IC50 [5] of 432 µM, an IC50 (WiDr colon, res) greater than 280 µM and an IC50 (WiDr colon, Sens; Homo sapiens, WiDr, read-out: IC50 against human mouse tumors, WiDr colon Sens) greater than 280 µM.

In the case of `N#CC1CN1C(=O)Nc1ccccc1` (centres unmarked) [Compound 13, 2-Cyanoaziridine-1-(N-phenyl)carboxamide], the no. sensitive ([6]; 13 0.2 μM) is reported as 2/2, the no. sensitive [6, 19] is reported as 2/2 and the no. sensitive ([6]; 13 2.0 μM (third column of 13)) is reported as 2/2. For the same molecule, the no. sensitive ([7]; 13 0.2 μM) was 1, the no. sensitive [7, 19] was 1 and the no. sensitive ([7]; 13 2.0 μM (third column of 13)) was 1. For the same molecule, the no. sensitive ([8]; 13 0.2 μM) was 0, the no. sensitive [8, 19] was 2 and the no. sensitive ([8]; 13 2.0 μM (third column of 13)) was 3. For the same molecule, the no. sensitive ([9]; 13 0.2 μM) was 0, the no. sensitive [9, 19] was 1 and the no. sensitive ([9]; 13 2.0 μM (third column of 13)) was 2. It also gave a no. sensitive ([10]; 13 0.2 μM) of 2, a no. sensitive [10, 19] of 2 and a no. sensitive ([10]; 13 2.0 μM (third column of 13)) of 3. The “activity against the sarcoma cells compared with imexon” value [11] was “superior”, the no. sensitive ([11]; 13 0.2 μM) was 2/2 and the no. sensitive [11, 19] was 4. For the same molecule, the no. sensitive ([11]; 13 2.0 μM (third column of 13)) was 5, the no. sensitive ([12]; 13 0.2 μM) was 3/10 and the no. sensitive [12, 19] was 10/11. The no. sensitive ([12]; 13 2.0 μM (third column of 13)) was 10, the no. sensitive ([13]; 13 0.2 μM) was 3/5 and the no. sensitive [13, 19] was 8. For the same molecule, the no. sensitive ([13]; 13 2.0 μM (third column of 13)) was 10, the π [1] was 2.00 and the “effectiveness compared with imexon” value ([14]; 13 at 0.2 μM versus imexon at 1.0 μM) was “about as effective as imexon”. The “activity and potency compared with imexon in fresh human tumor cells” value ([14]; listed as N-phenyl derivative) was “more potent and equally effective to imexon”, the IC50 (OVCAR3 ovarian; [20]) was 6.8 µM and the IC50 (A-549 lung; [21]) was 9 µM. It also gave an IC50 (MCF7 breast, Sens; [22]) of 2.9 µM, an IC50 ([2]; read-out: Log(1/C) (converted)) of 5.37 µM and an IC50 ([2]; against sensitive myeloma, values repeated from Table 3 (μM there), read-out: IC50) of 5.3 µM. The IC50 [2, 23] was 5.3 µM, the IC50 [3, 24] was 2.6 µM and the IC50 (A375 melan; [25]) was 11 µM. It also gave an IC50 [4, 26] of 4.3 µM, an IC50 (L1210 leukemia, Mdr; [27]) of 11 µM and an IC50 (L1210 leukemia, Sens; [28]) of 1.2 µM. The “activity against PIE 2-3 sarcoma” value (PIE 2-3 sarcoma) was “active”, the IC50 ([5]; line made resistant to imexon) was 8 µM and the IC50 (WiDr colon, res; multidrug-resistant) was 12 µM. For the same molecule, the IC50 (WiDr colon, Sens; [29]) was 5 µM and the melting point was 88 to 90 °C.

`N=C1NC(=O)N2CC12` (centres unmarked) [Imexon, 4-imino-1,3-diazabicyclo[3.1.0]hexan-2-one] gave a no. sensitive ([6]; Imexon 0.1 μM) of 3, a no. sensitive ([6]; Imexon 1.0 μM) of 3 and a no. sensitive ([6]; Imexon 10 μM) of 3. It also gave a no. sensitive ([7]; Imexon 0.1 μM) of 0, a no. sensitive ([7]; Imexon 1.0 μM) of 0 and a no. sensitive ([7]; Imexon 10 μM) of 1. For the same molecule, the no. sensitive ([8]; Imexon 0.1 μM) was 0, the no. sensitive ([8]; Imexon 1.0 μM) was 0 and the no. sensitive ([8]; Imexon 10 μM) was 1. The no. sensitive ([9]; Imexon 0.1 μM) was 0, the no. sensitive ([9]; Imexon 1.0 μM) was 0 and the no. sensitive ([9]; Imexon 10 μM) was 2. For the same molecule, the no. sensitive ([10]; Imexon 0.1 μM) was 0, the no. sensitive ([10]; Imexon 1.0 μM) was 2 and the no. sensitive ([10]; Imexon 10 μM) was 3. The no. sensitive ([11]; Imexon 0.1 μM) was 0/2, the no. sensitive ([11]; Imexon 1.0 μM) was 2 and the no. sensitive ([11]; Imexon 10 μM) was 5. The no. sensitive ([12]; Imexon 0.1 μM) was 4, the no. sensitive ([12]; Imexon 1.0 μM) was 3/11 and the no. sensitive ([12]; Imexon 10 μM) was 8. For the same molecule, the no. sensitive ([13]; Imexon 0.1 μM) was 3/5, the no. sensitive ([13]; Imexon 1.0 μM) was 4 and the no. sensitive ([13]; Imexon 10 μM) was 8. For the same molecule, the “selectivity among tumor cell types” value [15] was “selective for multiple myeloma”, the tolerability ([16]; Phase I) was “well-tolerated” and the clinical response ([16]; patients with lung cancer, breast cancer, or liver cancer) was “objective responses or stabilization of the disease”. For the same molecule, the “activity against human tumor cell lines in SCID mice” value [17] was “active”, the IC50 (OVCAR3 ovarian; [20]) was 640 µM and the IC50 (A-549 lung; [21]) was greater than 72 µM. The IC50 (MCF7 breast, Sens; [22]) was greater than 18 µM, the IC50 [2, 23] was 17 µM and the IC50 [3, 24] was greater than 18 µM. The IC50 (A375 melan; [25]) was 324 µM, the IC50 [4, 26] was greater than 18 µM and the “activity against transplanted syngeneic tumors” value [18] was “active”. The IC50 (L1210 leukemia, Mdr; [27]) was 477 µM, the IC50 (L1210 leukemia, Sens; [28]) was 612 µM and the IC50 ([5]; line made resistant to imexon) was 115 µM. The IC50 (WiDr colon, res; multidrug-resistant) was greater than 72 µM, the IC50 (WiDr colon, Sens; [29]) was greater than 72 µM and the “cytotoxicity in clonogenic assay” value (fresh human tumor cells) was “selectively cytotoxic to multiple myeloma”.
